Test results reported in patent US11179436B2, “Methods and compositions comprising a C-terminal Bax peptide” (University of Central Florida Research Foundation, Inc., priority 2011, dated 2021).

What was measured:
[1] = Calcein release from calcein-loaded large unilamellar vesicles; assay type: biochemical; settings: for maximal release of calcein upon treatment with detergent: Triton X-100 after peptide; for maximal release of calcein upon treatment with detergent / release of calcein from mitochondrial-like lipid vesicles: FIG. 1C; for release of calcein from mitochondrial-like lipid vesicles: free peptide
Description: Calcein release from artificial membranes was measured on a JASCO 810 spectropolarimeter (Jasco Inc.) with a Peltier water cooled thermostat and a photomultiplier tube mounted at 90 degrees for fluorescence measurements. Large unilamellar vesicles (LUVs) were prepared with the following modifications: Lipids (Avanti Polar Lipids) in chloroform were mixed in the following molar ratios: 52.5% 1-palmitoyl-2-oleyl-sn-glycero-3-phosphatidylcholine (POPC), 21% 1-palmitoyl-2-oleyl-sn-glycero-3-phosphatidylethanolamine (POPE), 13% bovine liver L-α phosphatidylinositol (PI), 10% cholesterol and 3.5% 1-palmitoyl-2-oleyl-sn-glycero-3-phosphatidylglycerol (POPG). These rations mimicked the outer mitochondrial membrane. After removing chloroform and desiccating, the dried lipid film was resuspended in 50 mM HEPES, pH 7, supplemented with 110 mM NaCl and 80 mM calcein and extruded with Avanti's mini extruder (Alabaster, Ala.). External calcein was removed by gel filtration through a 1.5×50 cm Econo-Column (Bio-Rad) freshly packed with Sephadex 50 (GE Healthcare). CT20 Bax peptides were added at concentrations equivalent to those used with cells in culture. Calcein fluorescence was excited at 495 nm and emission spectra recorded between 510 and 550 nm (excitation/ emission slits: 10/3 nm). Samples were maintained at 37° C. and a final measurement taken at 24 hours. Maximum calcein release was obtained by the addition of Triton ×100 (0.1% final concentration) to calcein loaded LUVs without nanoparticles that had had been incubated at 37° C. for 24 hours after the addition of 10 μL DMSO.
Using a commercially synthesized peptide composed of the last twenty amino acids ([…]) of the C-terminus of Bax (CT20), the ability of CT20p peptideto insert and permeabilize lipid membranes was examined. Liposomes contained phospholipids that composed the mitochondrial outer membrane and were loaded with calcein. […] In FIG. 1C, the red lines indicate maximal release of calcein with Triton X-100. The blue lines indicate treatment with DMSO and the green lines (except for control) indicate treatment with CT20 Bax peptides.
To determine whether the CT20p peptide could directly kill cancer cells, the CT20 wild type peptide was encapsulated in polymeric nanoparticles. As the CT20p peptide is amphipathic, it can be encapsulated within the hydrophobic pockets of aliphatic polymeric nanoparticles. […] To verify that the nanoparticles would not release the CT20 peptide at neutral pH, calcein loaded liposomes were prepared.
In FIG. 9, a calcein release assay was performed with calcein loaded lipid vesicles prepared with the composition of the mitochondrial membrane. Calcein release was measured as fluorescence. Controls were calcein release achieved with CT20p peptide alone and maximum calcein release obtained upon addition of Triton x100. A representative experiment of two independent experiments is shown. This confirmed that cargo is released from nanoparticles only by intracellular esterases or acidic pH (Santra et al., 2010).

MDA-MB-231 cells [2] = test: Cell death by CT20 peptide/nanoparticles and/or CDDP, with Z-VAD-fmk or Bcl-2 overexpression; assay type: cell-based; settings: FIG. 6A; for effect of caspase inhibition with Z-VAD-FMK on cell death: 100 μM Z-VAD-fmk pre-treatment; for cell death / loss of membrane integrity: CT20 peptide/nanoparticles 350 pM; for effect of Bcl-2 overexpression on cell death: transient Bcl-2 transfection
Description: MDA-MB-231 cells were transiently transfected with pcDNA-Bcl2 (or as control pEGFP (Clontech)) using the TransIT-LT1 transfection reagent (Minis). To assess transfection efficiency, cells were assayed microscopically for EGFP expression. To assess Bcl-2 expression, cells lysates were immunoblotted.
Visualization of the uptake and effects of the fluorescent dye (DiI)-loaded nanoparticles in HCT-116, MCF-7, and MDA-MD-231 cells was observed using a 10× air objective with a numerical aperture of 0.3, using ex/em of 514/587. All cells were loaded with MitoTracker. Visualization of the HCT-116 cell lines was observed using Plan-Apochromat 63× Oil objective. MCF-7 and MDA-MB-231 images were captured using Plan-Apochromat 40× Oil objective. All time-lapse images were generated in 2D by capturing 6 time points per hour for 24 hours of the same field.
(§1) HCT-116, MCF-7, or MDA-MB-231 cells were collected at a final concentration of 1×10^6 cells/mL and assayed using the SYTOX® AADvanced™ dead cell stain solution (Invitrogen). Cells were analyzed using the BD FACSCanto flow cytometer. SYTOX® AADvanced™ was visualized at 488 nm and emissions collected at 695 nm. Analysis of data was done using FSC Express software (DeNovo). Membrane asymmetry was assessed using the Violet Ratiometric Membrane Asymmetry Probe/Dead Cell Apoptosis Kit (Invitrogen) according to the manufacturer's protocol.
(§2) To evaluate apoptosis, cells were pre-treated with 100 μM of the pan-caspase inhibitor Z-VAD-fmk (EMD Biosciences) or transiently transfected with Bcl-2, then treated with either CT20/nanoparticles or cisplatin (CDDP) alone or in combination as indicated in figure legends. Following treatment, cells were analyzed for cell death and membrane asymmetry.
Whether the CT20 peptide was able to kill the breast cancer cells, MCF-7 and MDA-MB-231, was examined. […] For each sample, three different fields of view were acquired. Images are representative “snapshots” of three independent experiments Most MCF-7 cells died within 24 hours, while loss of membrane integrity was detected by 3 hours of treatment (FIG. 5B). […] Within three hours, increased membrane rupture was detected in MDA-MB-231 cells treated with COOH-nanoparticles loaded with CT20 peptide (FIG. 5D).
To investigate the mechanism by which the CT20p peptide was inducing cell death, MDA-MB-231 cells were treated with CT20 Bax peptide/nanoparticles (350 pM). A caspase inhibitor (e.g., ZVAD-Fmk and/or CDDP) was added or Bcl-2 was overexpressed. […] The expression of Bcl-2 by transfected cells was confirmed by immunoblotting lysates prepared from cells (FIG. 10).

[3] = test system: MDA-MB-231 cells implanted in the flanks of nude mice; test: Murine tumor experiment, intratumoral injection, tumor volume by ultrasound; assay type: in vivo; settings: for tumor growth / change in tumor volume: intratumoral injections over a 4-5 day period, versus empty nanoparticles or PBS
Description: One to two million MBA-MD-231 cells were harvested from culture and injected subcutaneously into the right and left flanks of 16 female nude mice (nu/nu, Charles River). After 2-3 weeks, tumor volume and growth was assessed by ultrasound (VisualSonics Vevo 2100). Mice with tumors were injected intratumorally with PBS, unloaded polymeric nanoparticles, or CT20 Bax peptide-loaded polymeric nanoparticles at 4× the concentrations described above. Injections were performed twice over a 4-5 day period. Mice were observed 0-5 days post-treatments and tumor volume assessed by ultrasound.
MDA-MB-231 cells were implanted in the flanks of nude mice. Initial growth of tumors was detected after 2 weeks. At this time tumors were measured, and over a 4-5 day period, the mice were treated with intratumoral injections of PBS, unloaded or empty nanoparticles (NP), or CT20 peptide/nanoparticles.
FIG. 6D provides representative ultrasound image of changes in tumor volume induced by treatment on days 0, 2 and 4 with the unloaded or CT20 peptide loaded nanoparticles. These findings indicate reduced uptake or effectiveness in non-cancerous cells.

wild type E. coli [4] = test: E. coli growth in broth by optical density; assay type: cell-based; settings: FIG. 14
Description: Attributes are shared among the peptides. […] The E. coli were grown in the presence of a peptide, concentrations of CT20p peptide or for control, SCR peptide, or no peptide for a control, in standard conditions for growing bacteria in broth media.

wild type E. coli [5] = test: E. coli colony formation after treatment; assay type: cell-based; settings: FIG. 15
Description: This was determined by plating the E. coli after treatment then counting the resulting colonies after 24 hour incubation. […] The bacterial culture media was plated after 24 hours of treatment/exposure to Ct20p or the control conditions, a peptide (SCR) or no peptide and addition of DMSO, and the resulting colonies were counted. […] A conclusion was that the inhibition of growth seen in FIG. 14 was due to the killing or lysing of bacteria.

[6] = Pore formation in zwitterionic and anionic membranes, kinetics of calcein release and structural studies; assay type: biochemical; settings: calcein transport
Excerpt: An analysis of formation of relatively large membrane pores by Bax C-terminal 20-reside peptide (CT20p) and two mutants where the two native lysines are replaced either with glutamates (charge reversal mutation) or leucines (charge neutralization mutation) were examined. […] The kinetics of calcein release at various concentrations of the three peptides allowed identification of the second-order rate constants of pore formation within the membrane, the affinity constants of peptide units composing the pore, and the oligomeric pore structure. Nucleation of the pore is shown to be relatively slow and involve 2-3 peptide molecules, followed by a faster process of assembly of the pore that includes up to eight peptide molecules. Structural studies led to a model of an octameric transmembrane pore with an inner diameter of 20-22 A. Analysis of the kinetics of calcein release from lipid vesicles allows determination of rate constants of pore formation, peptide-peptide affinities within the membrane, the oligomeric state of transmembrane pores, and the role of the lysine residues. […]
Additionally, the pore structure was analyzed by polarized Fourier transform infrared, circular dichroism, and fluorescence experiments on the peptides reconstituted in phospholipid membranes. […]

MDA-MB-231 cells [7] = test: Membrane asymmetry with violet ratiometric probe; assay type: cell-based; settings: FIG. 6B
Description: as §1, §2
Therefore, to determine whether the CT20p peptide induced apoptotic cell death, the amount of membrane asymmetry caused by flipping of phospholipids phospholipids in the plasma membrane using a violet ratiometric probe was determined. In FIG. 6B, dot blots show the comparison of loss of membrane integrity to changes in membrane symmetry in MDA-MB-231 cells treated with CT20p peptide and/or CDDP. […] This was minimally affected by caspase inhibition or Bcl-2 expression. […]

Compound	maximal release of calcein upon treatment with detergent [1]	release of calcein from mitochondrial-like lipid vesicles [1]	release of calcein from liposomes ([1]; 350 pM, pH 7, FIG. 9)	effect of caspase inhibition with Z-VAD-FMK on cell death (MDA-MB-231 cells [2])	cell death / loss of membrane integrity (MDA-MB-231 cells [2])	effect of Bcl-2 overexpression on cell death (MDA-MB-231 cells [2])	tumor growth / change in tumor volume [3]	tumor growth / change in tumor volume ([3]; listed as CT20 peptide)	damage of normal tissue surrounding the tumors ([3]; ultrasound, FIG. 6D)	time at which the growth curve reached a plateau (wild type E. coli [4]) [h]	nature of effect from colony counts (wild type E. coli [5]; 24 hours of treatment)	minimum inhibitory concentration (MiC) (wild type E. coli [5]; plated after treatment, colonies counted after 24 hour incubation) [mg]	pore formation in lipid membranes [6]	pore formation in lipid membranes ([6]; listed as wild-type peptide)	changes in membrane symmetry (MDA-MB-231 cells [7])
VTIFVAGVLTASLTIWEEMG [CT20-EE]	did not occur	did not cause calcein release													
VTIFVAGVLTASLTIWLLMG [CT20-LL]	impaired the maximal release of calcein	did not cause calcein release													
VTIFVAGVLTASLTIWKKMG [CT20p peptide]	impaired the maximal release of calcein	caused the release of calcein	did induce the release of calcein	largely unaffected	caused significant loss of membrane integrity	did not impair the death activity	tumor regression	prevented tumor growth	little to no observable damage of normal tissue	13	bactericidal	25	efficient at forming pores	most efficient pores	
[NH2][Pt]([NH2])([Cl])[Cl] [CDDP, cisplatin, reference compound]				inhibited by ZVAD-FMK	induced cell death	impaired death									induced significant alterations in the membrane symmetry
